{"source": "patent US20100255001A1", "about": "“BLOCKERS OF SEROTONIN AND ITS RECEPTORS FOR THE TREATMENT OF HEPATITIS” (priority 2007, published 2010)", "key": {"[1]": {"assay": "Serotonin treatment without infection, effect on liver"}, "[2]": {"system": "LCMV", "type": "in vivo, C57BL/6 mice", "conditions": "2×10^4 pfu LCMV, serotonin 5 mg/mouse/day"}}}
{"smiles": "NCCc1c[nH]c2ccc(O)cc12", "note": "[serotonin]", "values": [{"measurement": "effect on the liver without infection", "setting": "[1]", "value": "harmless to the liver"}, {"measurement": "time of maximum ALT level after infection", "setting": "[2]", "value": 10, "unit": "days"}, {"measurement": "replicating virus in liver (viral titers)", "setting": "[2]; eight days after infection, vehicle treated mice cleared LCMV by day 8", "value": "high levels of replicating virus"}, {"measurement": "ALT levels in the serum", "setting": "[2]; maximum at day 10 after infection", "value": "more than 1000 U/I"}]}
